What was measured:
[1] = Solubility of the drug substance in water; type: physicochemical
Description: The drug substance, CBD is insoluble in water. Sesame oil was selected as an excipient to solubilize the drug substance.

Dravet syndrome = conditions: Phase 3, Dravet syndrome; cited from earlier work
[2] = system: epilepsy associated with GRIN2A mutation; experiment: Expanded access compassionate use case study of a child with GRIN2A mutation refractory epilepsy; type: in vivo, human
Experimental: Example 1 describes a case study of a child with a GRIN2A mutation that was provided highly purified cannabidiol as part of an expanded access treatment program of children with refractory epilepsy.
A child was enrolled in an expanded access compassionate use program for CBD. This subject was treated with a highly purified extract of cannabidiol (CBD) obtained from a cannabis plant. Frequency of seizures was recorded at each visit, as were reported quality of life changes, including mood, behaviour, and cognitive function.
The patient first presented with seizures. They experienced status epilepticus with myoclonic jerks and atypical absence seizures which lasted between 30 seconds to 15 minutes.
The patient had tried and failed 10 different anti-epileptic drugs, the ketogenic diet, vitamin B6 and vagus nerve stimulation however their seizures remained refractory.
Treatment with a highly purified CBD extract (greater than 98% CBD w/w) in sesame oil, of known and constant composition, at a dose of 5 mg/kg/day in addition to their baseline anti-epileptic drug (AED) regimen was commenced in September 2014 and has been ongoing for four years.
Laboratory testing for hematologic, liver, kidney function and concomitant AED levels was performed at baseline, and after every 4 weeks of CBD therapy.

seizures [3] = conditions: of four adult patients; 200 mg/day; cited from earlier work
[4] = system: seizures after administration of pro-convulsant drugs or an electric current; conditions: mice; cited from earlier work
seizures [5] = conditions: twelve institutionalized adult patients; 200 mg/day; cited from earlier work
[6] = system: secondary generalized epilepsy; conditions: of eight adult patients; cited from earlier work
seizures [7] = conditions: rabbit, in vivo; cited from earlier work

C=C(C)[C@@H]1CCC(C)=C[C@H]1c1c(O)cc(CCCCC)cc1O [CBD, Cannabidiol]
Solubility in water [1]: insoluble
Study outcome (Dravet syndrome): positive results
Concomitant anti-epileptic drugs after treatment ([2]; after CBD treatment): All AEDs have been stopped with the exception of clobazam and the VNS
Cognitive function ([2]; after CBD treatment, patient now attends regular school and sports activities): significantly improved
Seizure status since the start of treatment ([2]; one patient, CBD 5 up to 25 mg/kg/day added to baseline AEDs, four years of treatment): seizure free
EEG: posterior dominate rhythm, alpha activity ([2]; repeat EEG after treatment with CBD (FIG. 2)): 9 Hz
EEG: epileptiform discharges ([2]; repeat EEG after treatment with CBD (FIG. 2), left frontal head region): rare
EEG: electrical status epilepticus during sleep ([2]; repeat EEG after treatment with CBD (FIG. 2), present at baseline): no electrical status epilepticus during sleep
Number of patients who became seizure free (seizures [3]): two
Prevention of seizures [4]: able to prevent seizures
Control of seizures (seizures [5]): ineffective
Number of patients with marked reduction of seizures [6]: 4

CCCCCc1cc(O)c2c(c1)OC(C)(C)[C@@H]1CCC(C)=C[C@@H]21 [THC, Tetrahydrocannabinol]
Convulsant liability (seizures [7]): pro-convulsant
